From article PMC12691635 (Antimicrobial Agents and Chemotherapy, 2025)

Experiments:
clinical = details: human, in vivo, iv, 1500 mg
Protocol: Blood samples obtained during the follow-up visits were processed immediately after extraction, centrifuged at 3,000 g for 10 min and frozen at −80°C until bioanalysis.

[1] = Population pharmacokinetic analysis (Monolix); format: in vivo, human
Protocol: The non-linear mixed-effect modeling software Monolix 2024R1 (Lixoft SAS, a Simulations Plus company) implementing the stochastic approximation expectation maximization algorithm was used for model development ([18]).
One- and multicompartment models with first-order elimination were tested. All individual parameters were assumed to be log-normally distributed. Inter-individual variability (IIV) was described using an exponential model. To describe residual variability, several error models (constant, proportional, or combined error model) were tested. The most appropriate structural model was selected based on the following criteria: Akaike information criterion, corrected Bayesian information criterion, usual goodness-of-fit plots, and relative standard errors. […] Model internal validation was based on goodness-of-fit plots, including observations versus individual (IPRED) and population predictions (PRED) and plots of normalized prediction distribution error (NPDE) versus PRED and time. A prediction-corrected visual predictive check (pc-VPC) was performed using 500 simulations with the final model ([21]), and non-parametric bootstrapping (n = 1,000) was used for assessing stability and robustness of the final model using Monolix 2024R1.

[2] = tested on: chronic prosthetic joint infections caused by Gram-positive bacteria; test: Microbiological and clinical cure after two-stage exchange with a single 1,500 mg dose; format: in vivo, human
[3] = cited from earlier work
Protocol: Our observations were best described by a one-compartment model, which is in accordance with the sparse data gathered from routine clinical practice ([40]). […] A potential explanation is that the studies that report higher CL were performed ...

[4] = single 1,000 mg dose, 2 weeks post-administration, non-infected patients undergoing elective orthopedic surgery; cited from earlier work
From the text: Assessment of optimal antibiotic exposure at the site of the infection is challenging, especially for deep-seated infections, such as bone and joint, and often unbound plasma exposure is used as a worst-case scenario surrogate for target site exposure assuming that only the free (unbound) concentration can distribute to peripheral tissues ([37]). However, drug PK in the peripheral tissues depends not only on protein binding but also on other characteristics, such as drug’s molecular weight and physiochemistry, varying broadly across antibiotic classes ([38]). For dalbavancin, Dunne et al. perf ...

[5] = Adverse events attributable to dalbavancin during follow-up; format: in vivo, human; details: single 1,500 mg i.v. dose, over administration and during follow-up, including changes in renal function; 20 patients
[6] = non-parametric bootstrap n = 1,000
[7] = one-compartment model, total concentrations, 18 patients with CPJI, single 1,500 mg i.v.

Q: What does the source list for `CN[C@H]1C(=O)N[C@@H]2Cc3ccc(cc3)Oc3cc4cc(c3O[C@@H]3O[C@H](C(=O)O)[C@@H](O)[C@H](O)[C@H]3NC(=O)CCCCCCCCC(C)C)Oc3ccc(cc3Cl)[C@@H](O)[C@@H]3NC(=O)[C@H](NC(=O)[C@@H]4NC(=O)[C@@H](NC2=O)c2cc(cc(O)c2Cl)Oc2cc1ccc2O)c1ccc(O)c(c1)-c1c(O[C@H]2O[C@H](CO)[C@@H](O)[C@H](O)[C@@H]2O)cc(O)cc1[C@@H](C(=O)NCCCN(C)C)NC3=O` [dalbavancin]?
A: level at 336 h (clinical): 58500 ng/mL; level at 504 h (clinical): 29700 ng/mL; level at 672 h (clinical): 13300 ng/mL; CL, clearance, bootstrap median (95% CI) [1, 6]: 0.037 (0.031–0.043) L/h; V, volume of distribution, bootstrap median (95% CI) [1, 6]: 18.0 (16.0–20.3) L; CL, clearance, estimate (% RSE) [1, 7]: 0.036 (8.2 %) [12.6%] L/h; V, volume of distribution, estimate (% RSE) [1, 7]: 17.9 (6.2 %) [18.1%] L; Clinical failures or relapses ([2]; median follow-up of 693 days (IQI 630–824) after the second-stage procedure): no clinical failures or relapses; Second-stage surgery isolates ([2]; patient 2, hip, first-stage S. lugdunensis, after Daptomycin (4)-Cefazolin (7) days): No growth; Second-stage surgery isolates ([2]; patient 3, hip, first-stage E. faecalis, after Daptomycin (4)-Ampicillin (7) days): No growth; Second-stage surgery isolates ([2]; patient 4, hip, first-stage S. hominis, after Vancomycin (6)-Linezolid (9) days): No growth; Second-stage surgery isolates ([2]; patient 5, hip, first-stage S. epidermidis, after Daptomycin (10) days): No growth; Second-stage surgery isolates ([2]; patient 6, hip, first-stage S. epidermidis, after Vancomycin (13)-Daptomycin (3) days): No growth; Second-stage surgery isolates ([2]; patient 7, shoulder, first-stage S. epidermidis, after Vancomycin (3)-Daptomycin (5) days): No growth; Second-stage surgery isolates ([2]; patient 8, knee, first-stage C. acnes, after Vancomycin (8) days): No growth; Second-stage surgery isolates ([2]; patient 9, hip, first-stage S. epidermidis, after Vancomycin (20) days): No growth; Second-stage surgery isolates ([2]; patient 10, hip, first-stage S. epidermidis, C. acnes, after Vancomycin (3)-Daptomycin (9) days): No growth; Second-stage surgery isolates ([2]; patient 11, knee, first-stage S. epidermidis, after Vancomycin (7) days): No growth; Second-stage surgery isolates ([2]; patient 12, knee, first-stage C. acnes, after Vancomycin (3)-Linezolid (5) days): No growth; Second-stage surgery isolates ([2]; patient 13, knee, first-stage S. epidermidis, after Vancomycin (10) days): No growth; Second-stage surgery isolates ([2]; patient 14, knee, first-stage S. epidermidis, after Vancomycin (7)-Linezolid (5) days): No growth; Second-stage surgery isolates ([2]; patient 15, hip, first-stage S. capitis, C. acnes, after Vancomycin (7)-Daptomycin (10) days): No growth; Second-stage surgery isolates ([2]; patient 16, knee, first-stage S. capitis, S. pettenkoferi, after Vancomycin (5)-Daptomycin (7) days): No growth; Second-stage surgery isolates ([2]; patient 17, shoulder, first-stage C. acnes, after Vancomycin (10) days): S. epidermidis S. hominis; Second-stage surgery isolates ([2]; patient 18, hip, first-stage S. epidermidis, after Vancomycin (10)-Linezolid (13) days): No growth; Second-stage surgery isolates ([2]; patient 19, hip, first-stage S. epidermidis, C. acnes, after Vancomycin (4)-Tedizolid (14) days): No growth; Second-stage surgery isolates ([2]; patient 20, hip, first-stage S. epidermidis, after Daptomycin (12) days): No growth; Microbiological cure rate ([2]; single 1,500 mg i.v. dose after median 11.5 days systemic antibiotics, vancomycin-gentamicin spacer, negative intraoperative cultures at second-stage surgery): 94.7%; CL reported in healthy volunteers and patients with acute infections [3]: 0.050 L/h; Measured amount in homogenized cortical bone [4]: 4.1 µg/g; Adverse events [5]: No adverse events were reported
